The source made the active and inactive calls.
How the values were obtained:
[1] = test system: Streptococcus sp. 'group A'; experiment: Streptococcus pyogenes SK(-)GAS viability under kanamycin – luminescence, BacTiterGlo, confirmation, counter-screen for streptokinase expression inhibitor project, dose response (AID 1900); type: functional, organism-based
Streptokinase A = biological target: T1, Streptokinase A (Streptococcus pyogenes serotype M1, UniProt P10520); experiment: viability-normalized secreted streptokinase activity reduction – plasminogen activation absorbance, OD405, dose response (AID 1914); type: functional, Streptococcus pyogenes M1 GAS;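 further: secreted streptokinase activity via plasminogen activation per viability signal from cell pellet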
T1 sequence (P10520 whole entry): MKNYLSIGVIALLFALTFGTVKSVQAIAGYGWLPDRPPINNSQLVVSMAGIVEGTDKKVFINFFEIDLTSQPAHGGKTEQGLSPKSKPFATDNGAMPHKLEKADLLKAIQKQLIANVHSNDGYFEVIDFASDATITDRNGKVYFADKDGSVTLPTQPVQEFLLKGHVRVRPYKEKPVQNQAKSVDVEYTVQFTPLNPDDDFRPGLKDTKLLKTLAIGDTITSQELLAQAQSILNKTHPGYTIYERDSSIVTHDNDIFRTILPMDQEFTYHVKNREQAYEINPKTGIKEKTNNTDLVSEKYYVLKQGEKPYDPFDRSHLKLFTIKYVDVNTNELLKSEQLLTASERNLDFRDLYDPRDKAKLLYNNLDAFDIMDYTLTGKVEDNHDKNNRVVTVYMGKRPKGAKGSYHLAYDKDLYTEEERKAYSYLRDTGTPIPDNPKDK

[2] = HPDE-C7 pancreatic duct cell viability loss – fluorescence, HTS (AID 430); type: functional, cell-based; conditions: Homo sapiens
[3] = viability loss of HPDE-C7K cells – cell-based, fluorescence, HTS, primary screen (AID 431); type: functional; conditions: Homo sapiens
[4] = biological target: T2, Calpain-2 catalytic subunit (Sus scrofa, UniProt P43367); experiment: m-calpain protease blockers, concentration series – biochemical, fluorogenic peptide substrate, dose response (AID 1420); type: functional
T2 sequence (P43367 whole entry): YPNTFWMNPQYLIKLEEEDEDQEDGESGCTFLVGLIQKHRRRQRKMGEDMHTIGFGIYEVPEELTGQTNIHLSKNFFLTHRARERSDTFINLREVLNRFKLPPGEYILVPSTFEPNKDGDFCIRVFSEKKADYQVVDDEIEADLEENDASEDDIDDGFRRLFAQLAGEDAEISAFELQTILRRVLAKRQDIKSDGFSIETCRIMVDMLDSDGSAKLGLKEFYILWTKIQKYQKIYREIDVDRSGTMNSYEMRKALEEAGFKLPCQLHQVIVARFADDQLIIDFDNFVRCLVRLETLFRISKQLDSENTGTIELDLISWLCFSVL

Streptococcus = experiment: GAS UMAA2166 growth inhibition – luminescence, BacTiterGlo, counter-screen for streptokinase expression inhibitor project, dose response (AID 1915); type: functional, organism-based;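 further: potency for reduction of bacterial viability or growth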
[5] = biological target: G-protein coupled receptor 55 (Homo sapiens, UniProt Q9Y2T6); experiment: selective activators of receptor GPR55 – imaging, U2OS cells, beta-arrestin-GFP redistribution, primary screen (AID 1961); type: functional
Sequence of G-protein coupled receptor 55 (Q9Y2T6 whole entry): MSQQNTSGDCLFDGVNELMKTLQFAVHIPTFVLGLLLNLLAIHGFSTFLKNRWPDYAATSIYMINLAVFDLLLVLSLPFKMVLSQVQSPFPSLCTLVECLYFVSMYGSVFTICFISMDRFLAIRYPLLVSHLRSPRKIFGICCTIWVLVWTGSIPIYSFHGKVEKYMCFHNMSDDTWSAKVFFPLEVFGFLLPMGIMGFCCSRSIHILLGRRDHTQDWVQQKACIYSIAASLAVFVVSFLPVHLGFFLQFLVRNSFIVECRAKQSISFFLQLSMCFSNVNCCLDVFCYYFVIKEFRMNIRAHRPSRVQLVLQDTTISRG

[6] = biological target: Heat shock protein HSP 90-alpha (Homo sapiens, UniProt P07900); type: functional, organism-based
[7] = biological target: T3, Corticotropin-releasing factor receptor 2/Corticotropin-releasing factor-binding protein (Homo sapiens, UniProt P24387+Q13324); experiment: Dose Response confirmation of uHTS hits for small molecule antagonists of the CRF-binding protein and CRF-R2 receptor complex.; type: functional; conditions: read-out: IC50_Mean
T3 sequence (Q13324 whole entry): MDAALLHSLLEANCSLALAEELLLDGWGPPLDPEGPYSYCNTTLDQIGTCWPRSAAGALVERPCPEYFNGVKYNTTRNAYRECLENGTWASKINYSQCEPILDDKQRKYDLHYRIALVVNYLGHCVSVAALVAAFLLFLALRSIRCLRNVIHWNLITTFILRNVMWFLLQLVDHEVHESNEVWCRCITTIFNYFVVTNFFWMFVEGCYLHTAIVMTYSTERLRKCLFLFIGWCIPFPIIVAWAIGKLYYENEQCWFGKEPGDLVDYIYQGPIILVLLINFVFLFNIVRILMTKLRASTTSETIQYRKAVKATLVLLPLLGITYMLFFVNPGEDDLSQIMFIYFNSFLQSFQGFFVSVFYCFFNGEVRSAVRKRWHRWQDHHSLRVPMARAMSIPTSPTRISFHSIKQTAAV
T3 sequence (P24387 whole entry): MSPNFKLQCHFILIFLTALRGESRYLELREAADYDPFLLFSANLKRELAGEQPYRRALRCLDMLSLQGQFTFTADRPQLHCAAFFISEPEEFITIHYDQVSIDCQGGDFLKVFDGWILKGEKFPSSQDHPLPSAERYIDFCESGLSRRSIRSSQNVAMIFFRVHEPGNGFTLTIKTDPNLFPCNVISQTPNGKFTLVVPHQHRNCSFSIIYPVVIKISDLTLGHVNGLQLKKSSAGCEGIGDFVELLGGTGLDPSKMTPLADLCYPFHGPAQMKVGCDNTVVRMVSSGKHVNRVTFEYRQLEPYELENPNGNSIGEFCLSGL

[8] = biological target: T3, Corticotropin-releasing factor receptor 2/Corticotropin-releasing factor-binding protein; experiment: activators of CRF receptor 2 with binding protein – uHTS hits, confirmation (AID 602473); type: functional; conditions: read-out: EC50_Mean
[9] = biological target: Disintegrin and metalloproteinase domain-containing protein 17 (Homo sapiens, UniProt P78536); experiment: exosite inhibitors of ADAM17, dose response, biochemical (AID 743260)
Sequence of Disintegrin and metalloproteinase domain-containing protein 17 (P78536 whole entry, the tested form may be a part): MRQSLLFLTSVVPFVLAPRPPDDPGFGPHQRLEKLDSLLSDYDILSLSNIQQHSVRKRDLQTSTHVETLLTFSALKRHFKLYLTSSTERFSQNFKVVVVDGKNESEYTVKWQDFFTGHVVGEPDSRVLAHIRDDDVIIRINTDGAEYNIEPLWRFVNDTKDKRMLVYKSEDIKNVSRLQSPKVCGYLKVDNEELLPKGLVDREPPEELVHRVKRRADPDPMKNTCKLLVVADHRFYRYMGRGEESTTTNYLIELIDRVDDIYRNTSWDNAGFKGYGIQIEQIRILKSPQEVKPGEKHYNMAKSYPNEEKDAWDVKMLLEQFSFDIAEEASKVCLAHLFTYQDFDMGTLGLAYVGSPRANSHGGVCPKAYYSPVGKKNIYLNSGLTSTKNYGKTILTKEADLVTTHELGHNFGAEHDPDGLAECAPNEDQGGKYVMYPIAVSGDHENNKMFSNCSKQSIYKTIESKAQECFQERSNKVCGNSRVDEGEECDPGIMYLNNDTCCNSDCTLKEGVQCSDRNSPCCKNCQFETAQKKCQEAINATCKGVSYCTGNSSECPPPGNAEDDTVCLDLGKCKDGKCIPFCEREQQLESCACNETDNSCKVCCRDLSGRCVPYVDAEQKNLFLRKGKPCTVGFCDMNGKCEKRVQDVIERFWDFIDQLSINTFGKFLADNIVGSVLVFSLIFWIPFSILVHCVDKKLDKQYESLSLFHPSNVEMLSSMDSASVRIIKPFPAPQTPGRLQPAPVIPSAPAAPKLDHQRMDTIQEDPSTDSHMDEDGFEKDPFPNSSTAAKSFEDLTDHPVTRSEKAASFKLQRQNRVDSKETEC

Hexokinase = Hexokinase (Trypanosoma brucei, UniProt Q38C41); experiment: Confirmation assay for inhibitors of Trypanosoma brucei hexokinase 1-Analogue-first series. [Related pubchem assays (depositor defined):AID1430, AID1632, AID2516, AID2560, AID2579, AID2600, AID449725, AID492951]; type: functional
Sequence of Hexokinase (Q38C41 whole entry): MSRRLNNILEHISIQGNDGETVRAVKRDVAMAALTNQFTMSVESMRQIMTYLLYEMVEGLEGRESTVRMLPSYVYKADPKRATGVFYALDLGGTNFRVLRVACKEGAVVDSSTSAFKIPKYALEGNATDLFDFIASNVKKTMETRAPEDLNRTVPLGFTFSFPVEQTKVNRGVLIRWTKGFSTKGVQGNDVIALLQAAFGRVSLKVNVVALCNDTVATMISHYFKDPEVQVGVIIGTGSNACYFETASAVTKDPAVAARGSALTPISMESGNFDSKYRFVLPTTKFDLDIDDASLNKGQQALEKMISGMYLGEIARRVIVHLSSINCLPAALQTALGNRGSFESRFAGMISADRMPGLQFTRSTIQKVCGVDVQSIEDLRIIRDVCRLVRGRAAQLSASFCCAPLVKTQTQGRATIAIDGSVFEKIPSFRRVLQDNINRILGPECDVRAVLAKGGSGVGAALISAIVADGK

[10] = biological target: T4, Tyrosine-protein phosphatase non-receptor type 7 (Homo sapiens, UniProt P35236); experiment: redox-active compounds inhibiting HePTP phosphatase – biochemical, fluorescence, mechanism study (AID 2068); type: functional
T4 sequence (P35236 whole entry): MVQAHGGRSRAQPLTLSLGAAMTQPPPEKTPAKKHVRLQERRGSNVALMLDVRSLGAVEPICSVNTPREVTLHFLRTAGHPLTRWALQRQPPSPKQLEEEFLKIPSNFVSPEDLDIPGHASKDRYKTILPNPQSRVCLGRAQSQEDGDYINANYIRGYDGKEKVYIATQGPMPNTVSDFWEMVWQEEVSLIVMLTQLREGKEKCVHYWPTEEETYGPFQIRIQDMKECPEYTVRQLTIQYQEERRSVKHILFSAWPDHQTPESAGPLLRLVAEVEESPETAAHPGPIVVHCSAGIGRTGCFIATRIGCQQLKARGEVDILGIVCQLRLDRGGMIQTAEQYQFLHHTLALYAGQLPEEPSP

## CCCOC(=O)c1ccc(Oc2c[nH]nc2-c2ccc(OCC)cc2O)cc1
[1]
  EC50: 8.69 µM (active)
Streptokinase A
  EC50: > 150 µM (not active)
[2]
  EC50: 6.6 µM (active)
[3]
  EC50: 6.96 µM (active)
[4]
  IC50: 19.6 µM (not active)
Streptococcus
  EC50: 33.8 µM (active)
[5]
  EC50: > 32 µM (inactive)
[6]
  AC50: 7.92 µM (active)
[7]
  IC50: > 47.1 µM (inactive)
[8]
  EC50: > 53 µM (inactive)
[9]
  IC50: > 69.5 µM (inactive)

## O=c1c2cc(Br)ccc2sn1-c1ccccc1
Hexokinase
  IC50: > 25 µM (inactive)

## CCN(CC)C(=O)C1CCCN(C(=O)Nc2ccc3nc(-c4ccco4)c(-c4ccco4)nc3c2)C1 (stereo not given)
[10]
  IC50: 2.66 µM (active)

## CCCN(CCC)Cc1c(C(=O)N/N=C/c2c[nH]c3ccccc23)nnn1-c1nonc1N
[5]
  EC50: 0.905 µM (active)

## COc1ccc(C(=O)NCC(=O)O)cc1
Hexokinase
  IC50: > 25 µM (inactive)
